In US6426360B1, “4,5-substituted imidazolyl compounds for the treatment of inflammation” (G D Searle & Co., priority 1994, dated 2002) one finds IC50 and melting point data, which are given here for 26 molecules.

The target in one data set is T1, Human COX II (Homo sapiens, UniProt P35354).
T1 construct: A 2.0 kb fragment containing the coding region of either human or murine COX-I or human or murine COX-II; made in house; host or cells: SF9 insect cells (recombinant baculovirus, transfer vector pVL1393)
T1 sequence (P35354 18-604): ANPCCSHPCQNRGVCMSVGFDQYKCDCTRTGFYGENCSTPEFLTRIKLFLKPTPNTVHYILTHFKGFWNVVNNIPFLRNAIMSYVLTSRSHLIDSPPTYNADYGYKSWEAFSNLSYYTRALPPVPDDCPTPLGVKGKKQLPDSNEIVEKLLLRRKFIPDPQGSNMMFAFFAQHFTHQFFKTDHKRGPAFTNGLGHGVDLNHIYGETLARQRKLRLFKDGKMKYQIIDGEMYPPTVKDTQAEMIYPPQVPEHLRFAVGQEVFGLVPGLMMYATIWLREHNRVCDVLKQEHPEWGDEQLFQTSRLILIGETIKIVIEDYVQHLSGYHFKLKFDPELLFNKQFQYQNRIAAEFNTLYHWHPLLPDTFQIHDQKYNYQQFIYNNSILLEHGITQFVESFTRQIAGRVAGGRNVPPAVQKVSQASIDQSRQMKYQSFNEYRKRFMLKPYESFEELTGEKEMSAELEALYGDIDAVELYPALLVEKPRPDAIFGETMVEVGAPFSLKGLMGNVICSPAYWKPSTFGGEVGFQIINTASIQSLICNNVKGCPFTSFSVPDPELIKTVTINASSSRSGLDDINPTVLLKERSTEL
Description: COX II activity in vitro (PGE2 ELISA, recombinant enzyme). The class given is biochemical. Conditions: arachidonic acid 10 μM, pre-incubation 10-20 minutes; read-out: Human COX II ID50. The protocol:
The COX II inhibition activity of the compounds of this invention illustrated in the Examples was determined by the following methods.
(§1) A 2.0 kb fragment containing the coding region of either human or murine COX-I or human or murine COX-II was cloned into a BamH1 site of the baculovirus transfer vector pVL1393 (Invitrogen) to generate the baculovirus transfer vectors for COX-I and COX-II in a manner similar to the method of D. R. O'Reilly et al (Baculovirus Expression Vectors: A Laboratory Manual (1992)). Recombinant baculoviruses were isolated by transfecting 4 μg of baculovirus transfer vector DNA into SF9 insect cells ([…]) along with 200 ng of linearized baculovirus plasmid DNA by the calcium phosphate method. See M. D. Summers and G. E. Smith, A Manual of Methods for Baculovirus Vectors and Insect Cell Culture Procedures, Texas Agric. Exp. Station Bull. 1555 (1987). Recombinant viruses were purified by three rounds of plaque purification and high titer (10E7-10E8 pfu/ml), stocks of virus were prepared. For large scale production, SF9 insect cells were infected in 10 liter fermentors (0.5×10^6/ml) with the recombinant baculovirus stock such that the multiplicity of infection was 0.1. After 72 hours the cells were centrifuged and the cell pellet homogenized in Tris/Sucrose (50 mM: 25%, pH 8.0) containing 1% 3-[(3-cholamidopropyl)dimethylammonio]-1-propanesulfonate (CHAPS). The homogenate was centrifuged at 10,000×G for 30 minutes, and the resultant supernatant was stored at −80° C. before being assayed for COX activity.
(§2) COX activity was assayed as PGE2 formed/μg protein/time using an ELISA to detect the prostaglandin released. CHAPS-solubilized insect cell membranes containing the appropriate COX enzyme were incubated in a potassium phosphate buffer (50 mM, pH 8.0) containing epinephrine, phenol, and heme with the addition of arachidonic acid (10 μM). Compounds were pre-incubated with the enzyme for 10-20 minutes prior to the addition of arachidonic acid. Any reaction between the arachidonic acid and the enzyme was stopped after ten minutes at 37° C./room temperature by transferring 40 μl of reaction mix into 160 μl ELISA buffer and 25 μM indomethacin. The PGE2 formed was measured by standard ELISA technology (Cayman Chemical).

In the next data set the target is T2, Human COX I (Homo sapiens, UniProt P23219).
T2 construct: A 2.0 kb fragment containing the coding region of either human or murine COX-I or human or murine COX-II; made in house; host or cells: SF9 insect cells (recombinant baculovirus, transfer vector pVL1393)
Description: COX I activity in vitro (PGE2 ELISA, recombinant enzyme). The class given is biochemical. Conditions: arachidonic acid 10 μM, pre-incubation 10-20 minutes; read-out: Human COX I ID50. The protocol:
as §1, §2

Each structure is given as a SMILES string.

T2 sequence (P23219 24-599): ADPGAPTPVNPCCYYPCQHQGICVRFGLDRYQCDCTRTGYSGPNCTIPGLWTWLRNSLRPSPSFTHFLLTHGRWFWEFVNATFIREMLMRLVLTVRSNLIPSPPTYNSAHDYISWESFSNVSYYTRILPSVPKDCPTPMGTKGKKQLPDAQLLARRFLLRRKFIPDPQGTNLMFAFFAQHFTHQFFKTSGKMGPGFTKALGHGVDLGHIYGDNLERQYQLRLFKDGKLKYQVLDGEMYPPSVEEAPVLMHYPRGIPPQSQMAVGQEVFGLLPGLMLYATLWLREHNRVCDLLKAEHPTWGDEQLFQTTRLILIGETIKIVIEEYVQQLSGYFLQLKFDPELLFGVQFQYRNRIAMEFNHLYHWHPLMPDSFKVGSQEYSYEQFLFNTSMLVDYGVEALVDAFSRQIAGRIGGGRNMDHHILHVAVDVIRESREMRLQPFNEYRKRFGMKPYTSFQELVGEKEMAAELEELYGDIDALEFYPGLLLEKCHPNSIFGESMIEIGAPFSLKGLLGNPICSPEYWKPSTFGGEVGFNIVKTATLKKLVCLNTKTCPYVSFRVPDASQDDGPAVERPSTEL

As to `COc1ccc(-c2[nH]c(C(F)(F)F)nc2-c2ccc(S(C)(=O)=O)cc2)cc1` [Example 15, 5-(4-Methoxyphenyl)-4-[4-(methylsulfonyl)phenyl]-2-(trifluoromethyl)-1H-imidazole], the IC50 on Human COX II was found to be 2.9 µM; at Human COX I, 5.6 µM. With `Cn1c(C(F)(F)F)nc(-c2ccc(S(C)(=O)=O)cc2)c1-c1ccc(F)cc1` [Example 44, 5-(4-Fluorophenyl)-1-methyl-4-[4-(methylsulfonyl)phenyl]-2-(trifluoromethyl)-1H-imidazole], the IC50 on Human COX II was 12.8 µM; on Human COX I it was over 100 µM.

On to `Cc1cc(Cl)cc(-c2[nH]c(C(F)(F)F)nc2-c2ccc(S(C)(=O)=O)cc2)c1` [Example 54, 5-(3-Chloro-5-methylphenyl)-4-[-(methylsulfonyl)phenyl]-2-(trifluoromethyl)-1H-imidazole], for which the melting point was 260 to 262 °C. `Cc1ccccc1-c1[nH]c(C(F)(F)F)nc1-c1ccc(S(C)(=O)=O)cc1` [Example 67, 5-(2-Methylphenyl)-4-[4-(methylsulfonyl)phenyl]-2-(trifluoromethyl)-1H-imidazole]: the melting point was in the range of 180 to 190 °C. `COc1ccc(-c2nc(C(F)(F)F)[nH]c2-c2ccc(S(C)(=O)=O)cc2)cc1OC` [Example 41, 4-(3,4-Dimethoxyphenyl)-5-[4-(methylsulfonyl)phenyl]-2-(trifluoromethyl)-1H-imidazole] returned a melting point of 221 to 224 °C. Same read-out and setting: the result for `CS(=O)(=O)c1ccc(-c2nc(C(F)(F)F)[nH]c2-c2cccc(Cl)c2)cc1` [Example 68, 5-(3-Chlorophenyl)-4-[4-(methylsulfonyl)phenyl]-2-(trifluoromethyl)-1H-imidazole] reads 224 to 226 °C. For the molecule `Cc1ccc(-c2[nH]c(C(F)(F)F)nc2-c2ccc(S(C)(=O)=O)cc2)cc1F` [Example 56, 5-(3-Fluoro-4-methylphenyl)-4-[4-(methylsulfonyl)phenyl]-2-(trifluoromethyl)-1H-imidazole], the melting point was 251 to 252 °C. Take `CS(=O)(=O)c1ccc(-c2nc(SCc3ccccc3)[nH]c2-c2ccc(F)cc2)cc1` [Example 8, 2-Benzylthio-5-(4-fluorophenyl)-4-[4-(methylsulfonyl)phenyl]-1H-imidazole]: the melting point was in the range of 155 to 156 °C. Further, the IC50 at Human COX I is 2.1 µM. Consider `CS(=O)(=O)c1ccc(-c2nc(C(F)(F)F)[nH]c2-c2ccc(Cl)c(Cl)c2)cc1` [Example 13, 5-(3,4-Dichlorophenyl)-4-[4-(methylsulfonyl)phenyl]-2-(trifluoromethyl)-1H-imidazole], for which the IC50 at Human COX I is 9.6 µM. The molecule `COc1c(C)cc(-c2[nH]c(C(F)(F)F)nc2-c2ccc(S(C)(=O)=O)cc2)cc1C` [Example 52, 5-(3,5-Dimethyl-4-methoxyphenyl)-4-[4-(methylsulfonyl)phenyl]-2-(trifluoromethyl)-1H-imidazole] displayed a melting point of 265 to 267 °C. Same read-out and setting: the result for `COc1ccc(-c2[nH]c(C(F)(F)F)nc2-c2ccc(S(C)(=O)=O)cc2)cc1Cl` [Example 57, 5-(3-Chloro-4-methoxyphenyl)-4-[4-(methylsulfonyl)phenyl]-2-(trifluoromethyl)-1H-imidazole] reads 288 to 291 °C; that for `Cc1ccc(-c2[nH]c(C(F)(F)F)nc2-c2ccc(S(C)(=O)=O)cc2)cc1C` [Example 61], 279 to 284 °C. On to `Cc1cc(-c2[nH]c(C(F)(F)F)nc2-c2ccc(S(C)(=O)=O)cc2)ccc1Cl` [Example 71, 5-(4-Chloro-3-methylphenyl)-4-[4-(methylsulfonyl)phenyl]-2-(trifluoromethyl)-1H-imidazole], for which the melting point was 261 to 264 °C. In turn, `COc1ccc(-c2nc(C(F)(F)F)[nH]c2-c2ccc(S(C)(=O)=O)cc2)cc1C` [Example 42, 4-(4-Methoxy-3-methylphenyl)-5-[4-(methylsulfonyl)phenyl]-2-(trifluoromethyl)-1H-imidazole] showed a melting point of 265 to 267 °C. Still for that read-out and setting: the same measure for `COc1cccc(-c2[nH]c(C(F)(F)F)nc2-c2ccc(S(C)(=O)=O)cc2)c1` [Example 65, 5-(3-Methoxyphenyl)-4-[4-(methylsulfonyl)phenyl]-2-(trifluoromethyl)-1H-imidazole]: 202 to 208 °C; for `CS(=O)(=O)c1ccc(-c2nc(C(F)(F)F)[nH]c2C2CCCCC2)cc1` [Example 69, 5-(Cyclohexyl)-4-[4-(methylsulfonyl)phenyl]-2-(trifluoromethyl)-1H-imidazole]: 250 to 253 °C. Regarding `COc1cc(-c2[nH]c(C(F)(F)F)nc2-c2ccc(S(C)(=O)=O)cc2)ccc1Cl` [Example 78, 5-(4-Chloro-3-methoxyphenyl)-4-[4-(methylsulfonyl)phenyl]-2-(trifluoromethyl)-1H-imidazole], the melting point is 233 to 234 °C. `Cc1c(F)cccc1-c1[nH]c(C(F)(F)F)nc1-c1ccc(S(C)(=O)=O)cc1` [Example 77, 5-(3-Fluoro-2-methylphenyl)-4-[4-(methylsulfonyl)phenyl]-2-(trifluoromethyl)-1H-imidazole] had a melting point of 192 to 196 °C. Regarding `NS(=O)(=O)c1ccc(-c2nc(C(F)(F)F)[nH]c2-c2ccc(F)cc2)cc1` [Example 21, 4-[5-(4-Fluorophenyl)-2-(trifluoromethyl)-1H-imidazol-4-yl]benzenesulfonamide], the melting point is 259 to 260 °C. Also, the IC50 on Human COX I is 10.8 µM. As to `CS(=O)(=O)c1ccc(-c2nc(C(=O)Cc3ccccc3)[nH]c2-c2ccc(F)cc2)cc1` [Example 86, 1-[5-(4-Fluorophenyl)-4-[4-(methylsulfonyl)phenyl]-1H-imidazol-2-yl]-2-phenylethanone], the melting point was determined as 263.2 °C. Molecule `Cc1ccc(-c2[nH]c(C(F)(F)F)nc2-c2ccc(S(C)(=O)=O)cc2)cc1Cl` [Example 73, 5-(3-Chloro-4-methylphenyl)-4-[4-(methylsulfonyl)phenyl]-2-(trifluoromethyl)-1H-imidazole] registered a melting point of 273 to 275 °C.

Consider `Cc1cc(C)cc(-c2[nH]c(C(F)(F)F)nc2-c2ccc(S(C)(=O)=O)cc2)c1` [Example 46, 5-(3,5-Dimethylphenyl)-4-[4-(methylsulfonyl)phenyl]-2-(trifluoromethyl)-1H-imidazole], for which the melting point lay within 255 to 257 °C. Turning to `CS(=O)(=O)c1ccc(-c2nc(C(F)(F)F)[nH]c2-c2ccsc2)cc1` [Example 76, 4-[4-(Methylsulfonyl)phenyl]-5-(3-thiophenyl)-2-(trifluoromethyl)-1H-imidazole], the melting point is 230 to 232 °C. The same measure, in the same setting: the same measure for `Cn1c(C(F)(F)F)nc(-c2ccc(F)cc2)c1-c1ccc(S(C)(=O)=O)cc1` [Example 45, 4-(4-Fluorophenyl)-1-methyl-5-[4-(methylsulfonyl)phenyl]-2-(trifluoromethyl)-1H-imidazole]: 193 to 195 °C; for `CS(=O)(=O)c1ccc(-c2nc(C(F)(F)F)[nH]c2-c2cccc(F)c2)cc1` [Example 66, 5-(3-Fluorophenyl)-4-[4-(methylsulfonyl)phenyl]-2-(trifluoromethyl)-1H-imidazole]: 225 to 229 °C; for `CS(=O)(=O)c1ccc(-c2nc(C(F)(F)F)[nH]c2C2CCCC2)cc1` [Example 75, 5-(Cyclopentyl)-4-[4-(methylsulfonyl)phenyl]-2-(trifluoromethyl)-1H-imidazole]: 210 to 212 °C.
